According to patent US9808505B2, “Suppression of malignant mesothelioma by overexpression or stimulation of endothelial protein C receptors (EPCR)” (BOARD OF REGENTS, THE UNIVERSITY OF TEXAS SYSTEM, priority 2013, dated 2017):

B1: FVIIa: Recombinant human FVIIa from Novo Nordisk; clotting factor that initiates coagulation upon binding to TF (protein)
chain: ANAFLEELRPGSLERECKEEQCSFEEAREIFKDAERTKLFWISYSDGDQCASSPCQNGGSCKDQLQSYICFCLPAFEGRNCETHKDDQLICVNENGGCEQYCSDHTGTKRSCRCHEGYSLLADGVSCTPTVEYPCGKIPILEKRNASKPQGRIVGGKVCPKGECPWQVLLLVNGAQLCGGTLINTIWVVSAAHCFDKIKNWRNLIAVLGEHDLSEHDGDEQSRRVAQVIIPSTYVPGTTNHDIALLRLHQPVVLTDHVVPLCLPERTFSERTLAFVRFSLVSGWGQLLDRGATALELMVLNVPRLMTQDCLQQSRKVGDSPNITEYMFCAGYSDGSKDSCKGDSGGPHATHYRGTWYLTGIVSWGQGCATVGHFGVYTRVSQYIEWLQKLMRSEPRPGVLLRAPFP

Assays:
Format in all cases: cell-based, human
REN MPM cells [1] = test: Measurement of cytosolic Ca2+ release (Fluo-4 fluorescence microscopy); conditions: peptide 50 μM (FIG. 1E)
Experimental: Fluorescence microscopy was used for measurement of cytosolic Ca^2+ release as described earlier (34). MPM cells were seeded in 8-well chambered cover slips (Nunc, Rochester, N.Y.) at a density of 10,000 cells/well. After 24 h, cells were washed and incubated with 4 μM Fluo-4/AM Ester (Molecular Probes, Inc, Eugene, Oreg.) for 1 h in buffer B in a humidified atmosphere of 37° C./5% CO2. The cells were then washed with buffer B, and a chambered cover slip was placed on the stage of an inverted microscope (Axio Observer Z1) encased in an incubation chamber that maintained 37° C./5% CO2. Live images of cell fluorescence were recorded by exciting the Fluo-4 probe with 488 nm light and monitoring 530 nm emission using Carl Zeiss LSM 510 Meta Confocal Laser Scanning system. After 15 sec of image acquisition, PAR1 agonist peptide […]; SEQ ID NO:10)) or PAR2 agonist peptide (SLIGRL; (SEQ ID NO:11)) was added to the cells at a final concentration of 50 μM and the recording was continued for an additional 165 sec. Results are represented as change in fluorescence intensity over time.

REN MPM cells [2] = test: Cell proliferation assay (BrdU incorporation) in MPM cells; conditions: for difference in cell proliferation between REN and REN(+EPCR): in vitro, presence or absence of ligand, FVIIa 10 nM, APC 20 nM, thrombin 10 nM, 24 h; for cell proliferation of REN cells in response to ligand (in words): wild-type REN cells in vitro, 10 nM ligand in SFM, 24 h (FIG. 8)
Experimental: Cell proliferation assay in MPM cells in the presence or absence of various ligands was performed using Apo-BrdU cell proliferation assay kit from Millipore (Temecula, Calif.) following the manufacturer's instructions. Briefly, MPM cells (7,500 cells/well) were seeded in 96-well plates in RPMI medium containing 10% FBS, and after 24 h the cells were washed once and maintained in serum-free medium (SFM). After 24 h, the cells were washed once with SFM and incubated with SFM or SFM containing FVIIa, APC, thrombin or serum (1%) for 24 h. Twenty μl of BrdU-labeling solution was added to each well 8 h prior to the completion of 24 h incubation with the test compound. The cells were fixed and processed for detection of BrdU incorporation by incubating the cells with an anti-BrdU antibody, followed by peroxidase-conjugated secondary antibody and then the substrate tetramethyl-benzidine with three washings in between each step. The color developed in the assay was measured as absorbance at 450 nm using the absorbance measured at 650 nm as a reference value in a microplate reader (Molecular Devices, Sunnyvale, Calif.).

REN MPM cells [3] = test: Elaboration of proangiogenic factors on exposure to FVIIa; conditions: REN MPM cells in response to FVIIa
Experimental: To assess whether TF promotes tumor growth in MPM through elaboration of proangiogenic factors by direct signaling (as observed in breast cancer cells (38, 39)), studies were conducted here to examine whether exposure of REN MPM cells to FVIIa increased production of proangiogenic factors in these cells. […] Thus, it seems unlikely that TF-FVIIa-PAR1-mediated cell signaling promotes MPM tumor growth through elaboration of proangiogenic factors as previously speculated for promotion of tumor growth in breast cancer (21).

Molecule	intracellular Ca2+ release (REN MPM cells [1])	thrombin-induced cell proliferation in PAR1 knock-down cells (REN MPM cells [2]; REN cells with PAR1 knock-down (REN-P1KD))	difference in cell proliferation between REN and REN(+EPCR) (REN MPM cells [2])	cell proliferation of REN cells in response to ligand (in words) (REN MPM cells [2])	FVIIa-induced increase in cell proliferation in TF knock-down cells (REN MPM cells [2]; REN cells with TF knock-down (REN-TFKD))	increase in rate of cell proliferation (REN MPM cells [2]; naïve REN MPM cells, addition of FVIIa)	elaboration of proangiogenic factors, including IL-8, CCN1 and CCN2 (REN MPM cells [3])
SLIGRL [PAR2 agonist peptide]	not						
TFLLRNPNDK [PAR1 agonist peptide]	induced intracellular Ca^2+ release						
thrombin		diminished	no measurable differences	modest increase			
B1			no measurable differences	modestly but consistently	abrogated	about 70%	robust or reproducible elaboration
